The record followed here is patent US20130040979A1, “CCR1 INHIBITORS USEFUL FOR THE TREAMENT OF MULTIPLE MYELOMA AND OTHER DISORDERS” (Millennium Pharmaceuticals, Inc., priority 2007, published 2013).

Type in all cases: cell-based, human
One experiment concerns INA6 cells. Briefly: Short-term co-culture of osteoclasts and multiple myeloma cells (thymidine uptake). As to conditions: 48 hours. Here is the method:
(§1) Co-culture experiments: Osteoclasts were harvested with cell dissociation buffer (Invitrogen, Carlsbad, Calif.) and seeded in 96-well or 24-well plates (approximately 1.5−3×10^4 cells/cm^2). After washing, multiple myeloma cells were added to the wells and incubated with media or with Compound 51 (10 nM) for the specified times at 37° C. For multiple myeloma cell proliferation, DNA synthesis was measured by tritiated thymidine uptake (3H-TdR; Perkin Elmer, Boston, Mass.), pulsing multiple myeloma cells with 3H-TdR (0.5 μCi/well [0.0185 MBq]L) during the last 8 hours of 48-hour cultures. At the end of the culture, cells were harvested onto paper filters with an automatic cell harvester (Cambridge Technology, Cambridge, Mass.) and counted using the LKB Betaplate scintillation counter (Wallac, Gaithersburg, Md.). To assess cell survival, viable multiple myeloma cells were counted by trypan blue staining.
Osteoclasts were seeded in a 96-well plate at a density of 10^4 cells/well and cocultured with INA6 cells (3×10^4 cells/well) for 48 hours.

Experiment [1] concerns MM cell adhesion to fibronectin (FBN). The experiment is described as follows: Adhesion assay: multiple myeloma cells to fibronectin. As to conditions: 6 hours incubation, FBN 20 μg/mL. The protocol: (§2) Cell lines: The dexamethasone (Dex)-sensitive (MM.1S) human MM cell line was provided by Dr Steven Rosen (Northwestern University, Chicago, Ill.). The INA6 human IL-6-dependent MM cell line was provided by Dr Renate Burger (University of Kiel, Kiel, Germany) (see Burger et al., J. Hematol. 2:42-53 (2001)) and cultured in the presence of 2.5 ng/mL IL-6 (R&D Systems, Minneapolis, Minn.). The OPM1 myeloma cell line was provided by Dr Lief Bergsagel (Mayo Clinic, Scottsdale, Ariz.), and the U266 cell line was obtained from the American Type Culture Collection (Rockville, Md.). All MM cell lines were cultured in RPMI 1640 media (Sigma Chemical) containing 10% fetal bovine serum (FBS), 2 mM L-glutamine, 100 U/mL penicillin, and 100 μg/mL streptomycin (Gibco, Grand Island, N.Y.).
(§3) Multiple myeloma cell lines were labeled with calcein AM (Invitrogen) according to the manufacturer's instructions and plated in a 96-well plates with OCs, fibronectin (FBN; 20 μg/mL), or media, with or without Compound 51. After 6 hours of incubation, plates were washed and fluorescence of the adherent cells was measured using the Multimode Reader Mithras LB 940 (Berthold Technologies, Wildbad, Germany). […] As also shown in FIG. 3, there were no effects on MM cell adhesion to fibronection (FBN).

In experiment [2] the test system is osteoclasts generated from peripheral blood mononuclear cells (PBMCs). Briefly: Osteoclast formation and TRAP assay. Here is the method: Osteoclast formation. Osteoclasts were generated from peripheral blood mononuclear cells (PBMCs) from healthy volunteers by Ficoll-Paque gradient separation and cultured in 6-well or 96-well plates (0.5×10^6 cells/cm^2). After 2 hours, nonadherent PBMCs were removed, and adherent cells were cultured for 21 days in α-MEM containing 10% FBS and 1% penicillin-streptomycin (Mediatech, Herndon, Va.), as well as 50 ng/mL of macrophage colony-stimulating factor (M-CSF; R&D Systems, Minneapolis, Minn.) and RANKL (PeproTech, Rocky Hill, N.J.).
After 3 weeks, cells were fixed with citrate-acetone solution and stained for tartrate-resistant acid phosphatase (TRAP) using an acid phosphatase leukocyte staining kit (Sigma Chemical) according to the manufacturer's instructions. TRAP^+ OCs containing 3 or more nuclei per cell were enumerated. Each OC formation assay was performed at least 3 times using PBMCs from different donors.

Experiment [3] concerns osteoclast activity (bone resorption). The experiment is described as follows: Pit formation assay (osteoclast bone resorption on dentin slices). As to conditions: 10 nM, 3 weeks. The protocol: Osteoclast activity was assayed by bone resorption enumerating resorption pits. PBMCs were cultured (0.5×10^6 cells/well) on dentin slices (Immunodiagnostic Systems, Boldon, United Kingdom) in 96-well plates as per the manufacturer's guidelines, and then stimulated with RANKL and M-CSF (50 ng/mL); Compound 51 was added as indicated in FIG. 2. After 3 weeks, adherent cells were scraped off gently with 0.1% Triton. Bone slices were washed in distilled water and stained with 1% toluidine solution. Resorption pits were then quantified by light microscopy using the public domain National Institutes of Health (NIH) Image J software version 1.36b. Each pit area assay was performed at least 3 times with PBMCs from different donors.

The subject of experiment [4] is multiple myeloma cell adhesion to osteoclasts. Briefly: Adhesion assay: multiple myeloma cells to osteoclasts. The following applies: 6 hours incubation; independent of CCR1 expression on MM cells. Here is the method:
as §2, §3

The test system of experiment [5] is multiple myeloma cells co-cultured with osteoclasts. The experiment is described as follows: Long-term co-culture of osteoclasts and multiple myeloma cells.
Source text: MM primary cells: Patient tumor cells were isolated as described in Kiziltepe et al., Blood 110:709-718 (2007). Following appropriate informed consent, obtained in accordance with the Declaration of Helsinki and with approval by the Institutional Review Board of the Dana-Farber Cancer Institute (Boston, Mass.), MM patient cells were separated from bone marrow (BM) samples by antibody-mediated positive selection using anti-CD138 magnetic activated cell separation microbeads (Miltenyi Biotech, Gladbach, Germany).
as §1
Osteoclasts were plated in a 24-well plate (3×10^4 cells/well) with either INA6 mutliple myeloma cells (5×10^3 cells/well) or primary patient multiple myeloma cells (3×10^5 cells/well) for 5 days using the general method described above.

Turning to `CC(C)(O)c1ccc2c(c1)C(=CCCN1CC[C@](O)(c3ccc(Cl)cc3)C(C)(C)C1)c1cccnc1CO2` [Compound 51, (4S)-4-(4-chlorophenyl)-1-{3-[7-(1-hydroxy-1-methylethyl)[1]benzoxepino[3,4-b]pyridin-5(11H)-ylidene]propyl}-3,3-dimethylpiperidin-4-ol], in the experiment with INA6 cells (no osteoclasts), the “antiproliferative effect on MM cells alone” value is recorded as “only modest antiproliferative effects”. Also, in the experiment on INA6 cells (INA6 cells co-cultured with osteoclasts, P<0.05), the “reduction of MM cell proliferative response induced by OCs” value is on record as 50%. Also, the “MM cell adhesion to fibronectin (FBN)” value in experiment [1] is given as “no effects”. In experiment [2] (10 nM, 3 weeks, TRAP+ OCs with 3 or more nuclei, p<0.05), the “reduction of osteoclast number compared to control” value is given as 40-60%. In addition, the “dose dependence of decrease in osteoclast number” value in experiment [2] (doses up to 100 nM) is reported as “No dose-dependent effect”. The “resorptive tracks and pit numbers” value in experiment [3] (dentin slices) is given as “almost complete abrogation”. In experiment [3] (control 8.7%±1.9%, P<0.01), the “bone resorption area, mean±SD, of total area per slice” value is 2.4%±1.2. The “multiple myeloma cell adhesion to osteoclasts” value in experiment [4] is listed as “almost complety inhibited”. For the same molecule, the “survival advantage conferred by osteoclasts” value in experiment [5] (INA6 cells, 5 days co-culture, 10 nM) was “almost completely abrogated”; in experiment [5] (MM1.S cells (data not shown)) it was “same effect was also noted”; in experiment [5] (primary MM cells, 5 days co-culture, 10 nM) it was “almost completely abrogated”.
